Patent US7138361B2, “Herbicidal heterocycles” (E. I. du Pont de Nemours and Company, priority 2000, dated 2006)

Legend:
Assay in all cases: Test C preemergence
Type in all cases: in vivo
Nightshade = test system: Nightshade
Sunflower [1] = settings: Rate 125 g/ha; scale 0 to 100, 0 no effect, 100 complete control
[2] = test system: Surinam grass (Brachiaria decumbens); settings: for Plant response rating (0 to 100), Surinam grass: Rate 500 g/ha, visual evaluation after 12 to 14 days
In short: (§1)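 Each compound was dissolved in a non-phytotoxic solvent system containing a surfactant and sprayed either on freshly planted seeds (preemergence) or on young plants, 2 to 18 cm high (postemergence). Ratings after 12 to 14 greenhouse days ran from 0, no effect, to 100, complete control.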

[3] = test system: bermudagrass (Cynodon dactylon); settings: for Plant response rating (0 to 100 where 0 is no effect and 100 is complete control), Bermudagrass: Rate 500 g/ha, visual evaluation after 12 to 14 days
In short: as §1

[4] = test system: cocklebur (Xanthium strumarium); settings: for Plant response rating (0 to 100), Cocklebur: Rate 500 g/ha, visual evaluation after 12 to 14 days
In short: as §1

[5] = test system: common ragweed (Ambrosia elatior); settings: for Plant response rating (0 to 100), Ragweed, Common: Rate 500 g/ha, visual evaluation after 12 to 14 days
In short: as §1

corn (Zea mays) = settings: for Plant response rating (0 to 100), Corn: Rate 500 g/ha, visual evaluation after 12 to 14 days
In short: as §1

[6] = test system: crabgrass (Digitaria sanguinalis); settings: for Plant response rating (0 to 100), Crabgrass: Rate 500 g/ha, visual evaluation after 12 to 14 days
In short: as §1

[7] = test system: giant foxtail (Setaria faberii); settings: for Plant response rating (0 to 100), Foxtail, Giant: Rate 500 g/ha, visual evaluation after 12 to 14 days
In short: as §1

[8] = test system: goosegrass (Eleusine indica); settings: for Plant response rating (0 to 100), Goosegrass: Rate 500 g/ha, visual evaluation after 12 to 14 days
In short: as §1

[9] = test system: johnsongrass (Sorghum halepense); settings: for Plant response rating (0 to 100), Johnsongrass: Rate 500 g/ha, visual evaluation after 12 to 14 days
In short: as §1

kochia (Kochia scoparia) = settings: for Plant response rating (0 to 100), Kochia: Rate 500 g/ha, visual evaluation after 12 to 14 days
In short: as §1

[10] = test system: lambsquarters (Chenopodium album); settings: for Plant response rating (0 to 100), Lambsquarters: Rate 500 g/ha, visual evaluation after 12 to 14 days
In short: as §1

[11] = test system: morningglory (Ipomoea hederacea); settings: for Plant response rating (0 to 100), Morningglory: Rate 500 g/ha, visual evaluation after 12 to 14 days
In short: as §1

[12] = test system: pigweed (Amaranthus retroflexus); settings: for Plant response rating (0 to 100), Pigweed: Rate 500 g/ha, visual evaluation after 12 to 14 days
In short: as §1

soybean (Glycine max) = settings: for Plant response rating (0 to 100), Soybean: Rate 500 g/ha, visual evaluation after 12 to 14 days
In short: as §1

[13] = test system: velvetleaf (Abutilon theophrasti); settings: for Plant response rating (0 to 100), Velvetleaf: Rate 500 g/ha, visual evaluation after 12 to 14 days
In short: as §1

[14] = test system: woolly cupgrass (Eriochloa villosa); settings: for Plant response rating (0 to 100), Cupgrass, Woolly: Rate 500 g/ha, visual evaluation after 12 to 14 days
In short: as §1

[15] = test system: yellow nutsedge (Cyperus esculentus); settings: for Plant response rating (0 to 100), Nutsedge: Rate 500 g/ha, visual evaluation after 12 to 14 days
In short: as §1

Sunflower [16] = settings: Rate 250 g/ha, scale 0 to 100, 0 no effect, 100 complete control
[17] = Rate 125 g/ha, scale 0 to 100, 0 no effect, 100 complete control
[18] = Rate 250 g/ha, scale 0 to 100, 0 no effect, 100 complete control
[19] = preemergence, Rate 62 g/ha, scale 0 to 100
[20] = preemergence, Rate 250 g/ha, scale 0 to 100, 0 no effect, 100 complete control

## CCC(CC)c1ccn(C2CCN(c3cccc(OC)c3)C2=O)n1 (centres unmarked) [Compound 96]
Nightshade; Rate 62 g/ha, scale 0 to 100
  Plant response rating, Nightshade: 0
Nightshade; [17]
  Plant response rating, Nightshade: 10
Nightshade; [18]
  Plant response rating, Nightshade: 60
Sunflower [1]
  Plant response rating, Sunflower: 0
[2]; [17]
  Plant response rating, Surinam grass: 90
[2]; [19]
  Plant response rating, Surinam grass: 50
[2]; preemergence
  Plant response rating (0 to 100), Surinam grass: 100
[2]; [20]
  Plant response rating, Surinam grass: 100
[3]; [17]
  Plant response rating, Bermudagrass: 100
[3]; [19]
  Plant response rating, Bermudagrass: 100
[3]; preemergence
  Plant response rating (0 to 100 where 0 is no effect and 100 is complete control), Bermudagrass: 100
[3]; [20]
  Plant response rating, Bermudagrass: 100
[4]; [17]
  Plant response rating, Cocklebur: 20
[4]; [19]
  Plant response rating, Cocklebur: 0
[4]; preemergence
  Plant response rating (0 to 100), Cocklebur: 30
[4]; [20]
  Plant response rating, Cocklebur: 30
[5]; [17]
  Plant response rating, Ragweed, Common: 0
[5]; [19]
  Plant response rating, Ragweed, Common: 0
[5]; preemergence
  Plant response rating (0 to 100), Ragweed, Common: 70
[5]; [20]
  Plant response rating, Ragweed, Common: 40
Corn (Zea mays); [17]
  Plant response rating, Corn: 20
Corn (Zea mays); [19]
  Plant response rating, Corn: 0
Corn (Zea mays); preemergence
  Plant response rating (0 to 100), Corn: 50
Corn (Zea mays); [20]
  Plant response rating, Corn: 40
[6]; [17]
  Plant response rating, Crabgrass: 100
[6]; [19]
  Plant response rating, Crabgrass: 100
[6]; preemergence
  Plant response rating (0 to 100), Crabgrass: 100
[6]; [20]
  Plant response rating, Crabgrass: 100
[7]; [17]
  Plant response rating, Foxtail, Giant: 0
[7]; [19]
  Plant response rating, Foxtail, Giant: 100
[7]; preemergence
  Plant response rating (0 to 100), Foxtail, Giant: 100
[7]; [20]
  Plant response rating, Foxtail, Giant: 0
[8]; [17]
  Plant response rating, Goosegrass: 100
[8]; [19]
  Plant response rating, Goosegrass: 100
[8]; preemergence
  Plant response rating (0 to 100), Goosegrass: 100
[8]; [20]
  Plant response rating, Goosegrass: 100
[9]; [17]
  Plant response rating, Johnsongrass: 30
[9]; [19]
  Plant response rating, Johnsongrass: 20
[9]; preemergence
  Plant response rating (0 to 100), Johnsongrass: 70
[9]; [20]
  Plant response rating, Johnsongrass: 50
Kochia (Kochia scoparia); [17]
  Plant response rating, Kochia: 100
Kochia (Kochia scoparia); [19]
  Plant response rating, Kochia: 100
Kochia (Kochia scoparia); preemergence
  Plant response rating (0 to 100), Kochia: 100
Kochia (Kochia scoparia); [20]
  Plant response rating, Kochia: 100
[10]; [17]
  Plant response rating, Lambsquarters: 100
[10]; [19]
  Plant response rating, Lambsquarters: 100
[10]; preemergence
  Plant response rating (0 to 100), Lambsquarters: 100
[10]; [20]
  Plant response rating, Lambsquarters: 100
[11]; [17]
  Plant response rating, Morningglory: 0
[11]; [19]
  Plant response rating, Morningglory: 0
[11]; preemergence
  Plant response rating (0 to 100), Morningglory: 20
[11]; [20]
  Plant response rating, Morningglory: 20
[12]; [17]
  Plant response rating, Pigweed: 0
[12]; [19]
  Plant response rating, Pigweed: 0
[12]; preemergence
  Plant response rating (0 to 100), Pigweed: 50
[12]; [20]
  Plant response rating, Pigweed: 0
Soybean (Glycine max); [17]
  Plant response rating, Soybean: 0
Soybean (Glycine max); [19]
  Plant response rating, Soybean: 0
Soybean (Glycine max); preemergence
  Plant response rating (0 to 100), Soybean: 70
Soybean (Glycine max); [20]
  Plant response rating, Soybean: 50
[13]; [17]
  Plant response rating, Velvetleaf: 0
[13]; [19]
  Plant response rating, Velvetleaf: 0
[13]; preemergence
  Plant response rating (0 to 100), Velvetleaf: 40
[13]; [20]
  Plant response rating, Velvetleaf: 30
[14]; [17]
  Plant response rating, Cupgrass, Woolly: 95
[14]; [19]
  Plant response rating, Cupgrass, Woolly: 60
[14]; preemergence
  Plant response rating (0 to 100), Cupgrass, Woolly: 100
[14]; [20]
  Plant response rating, Cupgrass, Woolly: 100
[15]; [17]
  Plant response rating, Nutsedge: 0
[15]; [19]
  Plant response rating, Nutsedge: 0
[15]; preemergence
  Plant response rating (0 to 100), Nutsedge: 70
[15]; [20]
  Plant response rating, Nutsedge: 10
Sunflower [16]
  Plant response rating, Sunflower: 50

## CCCC(C)c1ccn(C2CCN(c3cccc(OC)c3)C2=O)n1 (centres unmarked) [Compound 99]
Nightshade; Rate 62 g/ha, scale 0 to 100
  Plant response rating, Nightshade: 0
Nightshade; [17]
  Plant response rating, Nightshade: 0
Nightshade; [18]
  Plant response rating, Nightshade: 0
Sunflower [1]
  Plant response rating, Sunflower: 0
[2]; [17]
  Plant response rating, Surinam grass: 0
[2]; [19]
  Plant response rating, Surinam grass: 0
[2]; preemergence
  Plant response rating (0 to 100), Surinam grass: 90
[2]; [20]
  Plant response rating, Surinam grass: 0
[3]; [17]
  Plant response rating, Bermudagrass: 90
[3]; [19]
  Plant response rating, Bermudagrass: 90
[3]; preemergence
  Plant response rating (0 to 100 where 0 is no effect and 100 is complete control), Bermudagrass: 100
[3]; [20]
  Plant response rating, Bermudagrass: 100
[4]; [17]
  Plant response rating, Cocklebur: 0
[4]; [19]
  Plant response rating, Cocklebur: 0
[4]; preemergence
  Plant response rating (0 to 100), Cocklebur: 0
[4]; [20]
  Plant response rating, Cocklebur: 0
[5]; [17]
  Plant response rating, Ragweed, Common: 0
[5]; [19]
  Plant response rating, Ragweed, Common: 0
[5]; preemergence
  Plant response rating (0 to 100), Ragweed, Common: 0
[5]; [20]
  Plant response rating, Ragweed, Common: 0
Corn (Zea mays); [17]
  Plant response rating, Corn: 0
Corn (Zea mays); [19]
  Plant response rating, Corn: 0
Corn (Zea mays); preemergence
  Plant response rating (0 to 100), Corn: 20
Corn (Zea mays); [20]
  Plant response rating, Corn: 0
[6]; [17]
  Plant response rating, Crabgrass: 100
[6]; [19]
  Plant response rating, Crabgrass: 100
[6]; preemergence
  Plant response rating (0 to 100), Crabgrass: 100
[6]; [20]
  Plant response rating, Crabgrass: 100
[7]; [17]
  Plant response rating, Foxtail, Giant: 20
[7]; [19]
  Plant response rating, Foxtail, Giant: 10
[7]; preemergence
  Plant response rating (0 to 100), Foxtail, Giant: 70
[7]; [20]
  Plant response rating, Foxtail, Giant: 20
[8]; [17]
  Plant response rating, Goosegrass: 80
[8]; [19]
  Plant response rating, Goosegrass: 80
[8]; preemergence
  Plant response rating (0 to 100), Goosegrass: 100
[8]; [20]
  Plant response rating, Goosegrass: 90
[9]; [17]
  Plant response rating, Johnsongrass: 0
[9]; [19]
  Plant response rating, Johnsongrass: 0
[9]; preemergence
  Plant response rating (0 to 100), Johnsongrass: 90
[9]; [20]
  Plant response rating, Johnsongrass: 0
Kochia (Kochia scoparia); [17]
  Plant response rating, Kochia: 90
Kochia (Kochia scoparia); [19]
  Plant response rating, Kochia: 80
Kochia (Kochia scoparia); preemergence
  Plant response rating (0 to 100), Kochia: 100
Kochia (Kochia scoparia); [20]
  Plant response rating, Kochia: 90
[10]; [17]
  Plant response rating, Lambsquarters: 100
[10]; [19]
  Plant response rating, Lambsquarters: 100
[10]; preemergence
  Plant response rating (0 to 100), Lambsquarters: 100
[10]; [20]
  Plant response rating, Lambsquarters: 100
[11]; [17]
  Plant response rating, Morningglory: 20
[11]; [19]
  Plant response rating, Morningglory: 0
[11]; preemergence
  Plant response rating (0 to 100), Morningglory: 20
[11]; [20]
  Plant response rating, Morningglory: 20
[12]; [17]
  Plant response rating, Pigweed: 90
[12]; [19]
  Plant response rating, Pigweed: 0
[12]; preemergence
  Plant response rating (0 to 100), Pigweed: 70
[12]; [20]
  Plant response rating, Pigweed: 20
Soybean (Glycine max); [17]
  Plant response rating, Soybean: 0
Soybean (Glycine max); [19]
  Plant response rating, Soybean: 0
Soybean (Glycine max); preemergence
  Plant response rating (0 to 100), Soybean: 0
Soybean (Glycine max); [20]
  Plant response rating, Soybean: 0
[13]; [17]
  Plant response rating, Velvetleaf: 0
[13]; [19]
  Plant response rating, Velvetleaf: 0
[13]; preemergence
  Plant response rating (0 to 100), Velvetleaf: 0
[13]; [20]
  Plant response rating, Velvetleaf: 0
[14]; [17]
  Plant response rating, Cupgrass, Woolly: 0
[14]; [19]
  Plant response rating, Cupgrass, Woolly: 0
[14]; preemergence
  Plant response rating (0 to 100), Cupgrass, Woolly: 100
[14]; [20]
  Plant response rating, Cupgrass, Woolly: 10
[15]; [17]
  Plant response rating, Nutsedge: 0
[15]; [19]
  Plant response rating, Nutsedge: 0
[15]; preemergence
  Plant response rating (0 to 100), Nutsedge: 90
[15]; [20]
  Plant response rating, Nutsedge: 0
Sunflower [16]
  Plant response rating, Sunflower: 0
